Results reported in patent US4681699A, “Bisazo dyes and their use in liquid crystalline materials” (BASF Aktiengesellschaft, priority 1984, dated 1987).

Tests used:
[1] = Solubility L of dye in liquid crystal mixture at room temperature (saturated solution, comparison of extinctions); format: physicochemical
Experimental: (§1) The degree of order S measured at room temperature, the solubility L likewise determined at room temperature, and the Merck liquid crystal mixtures used are summarized in Table 1 for Examples 1, 4, 5, 8, 12, 15 and 18.
(§2) The values for the degree of order and the solubility which have been measured at room temperature in ZLI 2452 are summarized in Table 2 for some of the Examples 19-46.
The solubility was determined as described below. 50 mg of the particular dye was stirred for 1 week at room temperature in 1 ml of liquid crystal, the saturated solution was centrifuged off from the residue, and the solubility was determined by comparison of extinctions.

[2] = Degree of order S of dye in nematic liquid crystal mixture (dichroic ratio CR, homogeneously oriented measuring cell); format: physicochemical
Experimental: as §1, §2
The degree of order S was determined on the basis of the known equation [formula] in a commercial measuring cell with a homogeneous orientation (polyimide).The dichroic ratio CR was determined by measuring the extinctions E^.parallel. (measured with light polarized parallel to the preferred direction of the nematic phase) and E^.perp. (measured with light polarized perpendicular to the preferred direction of the nematic phase) and using the relationship CR=E^.parallel. /E^.perp., the dye concentrations being chosen so that E^.parallel. was from 1 to 2. The measurements were carried out using an Acta CIII spectrophotometer from Beckmann.

[3] = liquid crystal mixture ZLI 1957/5
[4] = liquid crystal mixture ZLI 1840
[5] = liquid crystal mixture ZLI 2452 (Table 1)
[6] = liquid crystal mixture ZLI 2585

Row | Compound | Solubility L (at room temperature) ([1]; ZLI 2452 (Table 2)) [%] | Degree of order S (at room temperature) ([2]; ZLI 2452 (Table 2)) | further results
1 | CCCCCCCCSc1nsc(N=Nc2ccc(N=Nc3ccc(N(C)CCCC)cc3)cc2)n1 [Example 1] |  |  | Solubility L (at room temperature) [1, 3]: 1.5%; Degree of order S (at room temperature) [2, 3]: 0.72
2 | CCCCSc1nsc(N=Nc2cc(C)c(N=Nc3ccc(N(C)C)cc3C)cc2C)n1 [Example 4] |  |  | Solubility L (at room temperature) [1, 4]: 0.9%; Degree of order S (at room temperature) [2, 4]: 0.73
3 | Cc1cc(N=Nc2ccc(N(C)C)cc2C)c(C)cc1N=Nc1nc(SCc2ccccc2)ns1 [Example 5] |  |  | Solubility L (at room temperature) [1, 4]: 0.3%; Degree of order S (at room temperature) [2, 4]: 0.74
4 | CCCCCCCCSc1nsc(N=Nc2cc(C)c(N=Nc3ccc(N(C)C)cc3C)cc2C)n1 [Example 8] |  |  | Solubility L (at room temperature) [1, 3]: 1.5%; Degree of order S (at room temperature) [2, 3]: 0.73; Degree of order S (at room temperature) [2, 5]: 0.76
5 | CCNc1ccc(N=Nc2cc(C)c(N=Nc3nc(SC)ns3)cc2C)c2ccccc12 [Example 12] |  |  | Solubility L (at room temperature) [1, 4]: 0.7%; Degree of order S (at room temperature) [2, 4]: 0.72
6 | CCCCCCCCSc1nsc(N=Nc2cc(C)c(N=Nc3ccc(NCc4ccc(C5CCC(CCCC)CC5)cc4)c4ccccc34)cc2C)n1 (stereo not drawn) [Example 15] |  |  | Solubility L (at room temperature) [1, 3]: 1.4%; Solubility L (at room temperature) [1, 5]: 2.8%; Solubility L (at room temperature) [1, 6]: 2.8%; Degree of order S (at room temperature) [2, 3]: 0.77; Degree of order S (at room temperature) [2, 5]: 0.81; Degree of order S (at room temperature) [2, 6]: 0.74
7 | CCCCCCCCSc1nsc(N=Nc2ccc(N=Nc3ccc(NCc4ccc(C5CCC(CCCC)CC5)cc4)c4ccccc34)cc2)n1 (stereo not drawn) [Example 18] |  |  | Solubility L (at room temperature) [1, 3]: 0.9%; Degree of order S (at room temperature) [2, 3]: 0.79
8 | CCCCCCCCCCCCN(C)c1ccc(N=Nc2cc(C)c(N=Nc3nc(CCCCCCC)ns3)cc2C)c2ccccc12 [Example 22] | 1.7 | 0.77 | 
9 | CCCCCCCCCCCCNc1ccc(N=Nc2cc(C)c(N=Nc3nc(SC)ns3)cc2C)c2ccccc12 [Example 26] | 1.3 | 0.76 | 
10 | CCCCCCCCCCCCNc1ccc(N=Nc2cc(C)c(N=Nc3nc(SCCCCCCC)ns3)cc2C)c2ccccc12 [Example 35] | 0.6 | 0.79 | 
11 | CCCCCCCCSc1nsc(N=Nc2cc(C)c(N=Nc3ccc(NCCc4ccccc4)c4ccccc34)cc2C)n1 [Example 41] | 0.6 | 0.74 | 
12 | CCCCCCCCSc1nsc(N=Nc2cc(C)c(N=Nc3ccc(Nc4ccc(CCCC)cc4)c4ccccc34)cc2C)n1 [Example 43] | 3.2 | 0.71 | 

Further lines, with some results ahead:

Row | Solubility L (at room temperature) ([1]; ZLI 2452 (Table 2)) [%] | Degree of order S (at room temperature) ([2]; ZLI 2452 (Table 2)) | Compound | further results
13 | 0.6 | 0.75 | CCCCCCCCNc1ccc(N=Nc2cc(C)c(N=Nc3nc(SCCCCCCCC)ns3)cc2C)c2ccc(C)nc12 [Example 19] | 
14 | 0.8 | 0.77 | CCCCCCCCNc1ccc(N=Nc2cc(C)c(N=Nc3nc(SCCCCCCCC)ns3)cc2C)c2ccccc12 [Example 36] | 
15 | > 5 | 0.74 | CCCCC(CC)CSc1nsc(N=Nc2cc(C)c(N=Nc3ccc(NCC)c4ccccc34)cc2C)n1 (stereo not drawn) [Example 38] | 
16 | 1.2 | 0.77 | CCCCCCCCCCCCNc1ccc(N=Nc2cc(C)c(N=Nc3nc(SCCCCCCCCCCCC)ns3)cc2C)c2ccccc12 [Example 40] | 
17 | 0.4 | 0.80 | CCCCCCCCSc1nsc(N=Nc2cc(C)c(N=Nc3ccc(NCc4ccc(CCCCC)cc4)c4ccccc34)cc2C)n1 [Example 42] | 
18 | 2.6 | 0.81 | CCCCC1CCC(c2ccc(CNc3ccc(N=Nc4ccc(N=Nc5nc(SCC(CC)CCCC)ns5)cc4)c4ccccc34)cc2)CC1 (stereo not drawn) [Example 44] | 
19 | 2.4 | 0.81 | CCCCC1CCC(c2ccc(CNc3ccc(N=Nc4ccc(N=Nc5nc(SCC(CC)CCCC)ns5)c(C)c4)c4ccccc34)cc2)CC1 (stereo not drawn) [Example 45] | 
20 | 0.8 | 0.80 | CCCCC1CCC(c2ccc(CNc3ccc(N=Nc4cc(C)c(N=Nc5nc(SCC(CC)CCCC)ns5)cc4C)c4ccccc34)cc2)CC1 (stereo not drawn) [Example 46] | 
